Assay results taken from PubChem BioAssay (NCI).
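1) Cells in 96-well plates. 2) Compound, 48 h, 5 concentrations. 3) Linear interpolation between surrounding doses. 4) Unreached endpoint = highest concentration. GI50 marks 50% less growth. Definition used: TGI = concentration required for complete inhibition of growth.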

Columns and labels:
Test in all cases: NCI-60 cell line screen, 48 h
DU-145 prostate = tested on: DU-145 prostate
SNB-19 CNS = tested on: SNB-19 CNS
SK-MEL-5 melanoma = tested on: SK-MEL-5 melanoma
U251 CNS = tested on: U251 CNS
SK-MEL-28 melanoma = tested on: SK-MEL-28 melanoma
NCI-H522 lung = tested on: NCI-H522 lung
BT-549 breast = tested on: BT-549 breast

Compound	TGI (DU-145 prostate) [µM]	TGI (SNB-19 CNS) [µM]	TGI (SK-MEL-5 melanoma) [µM]	TGI (U251 CNS) [µM]	TGI (SK-MEL-28 melanoma) [µM]	TGI (NCI-H522 lung) [µM]	TGI (BT-549 breast) [µM]	GI50 (DU-145 prostate) [µM]	GI50 (SNB-19 CNS) [µM]	GI50 (U251 CNS) [nM]	GI50 (SK-MEL-28 melanoma) [nM]	GI50 (NCI-H522 lung) [nM]	GI50 (SK-MEL-5 melanoma) [nM]	GI50 (BT-549 breast) [nM]
CN1CCCN(C)C1c1cc([N+](=O)[O-])ccc1O	> 100	> 100	48.4	> 100	82.3	> 100	> 100							
ClC(Cl)c1nc(-c2cccnc2)n2nc(-c3ccccc3)cc2n1	3.14	5.89		5.11	3.51	6.03		0.554	1.88	1460	1710	1670		
CN(C)CCCN1c2nc3ccccc3cc2Sc2cc3ccccc3nc21	3.01	3.13	3.04	3.08	2.21		2.84	1.65	1.69	1600	1040		1590	1420
COc1cc2c3c(n(CCCNCCN)c(=O)c2cc1OC)-c1cc2c(cc1C3=O)OCO2	3.41	> 100	6.77	0.533	2.95	2.29	9.7	0.556	40.8	48.4	822	245	978	1560
COC(=O)c1c2c(c(C)[n+]([O-])c1C)C(=O)C=C(NCc1ccc(F)c(F)c1)C2=O	2.28	2.29	0.308	1.72	2.43	1.35	2.42	1.06	1.08	458	840	286	167	1120
C#CC1(O)C(COP(=O)(O)OC2CC(n3cc(F)c(=O)[nH]c3=O)OC2CO)OC(n2ccc(N)nc2=O)C1O (configuration not stated)	3.62	> 100	0.196	> 100	1.72	3.15	0.909	< 0.011	< 0.0205	< 13.8	47.4	< 14	< 15.4	< 15.7
O=[N+]([O-])c1ccc(N/N=C/c2c(O)ccc3ccccc23)nc1	> 100	> 100	> 100	> 100	> 100	> 100	> 100	6.77	> 100	5010	> 100000	3740	20100	39800
NNc1cccc(/C=C/c2ccccc2)cc1=O	> 100	> 100	> 100	> 100	> 100	> 100	> 100	7.04	14.9	6930	35900	8180	11700	33500
C1CSCCCSCCSCCCSC1	> 100	> 100	> 100	> 100	> 100	> 100	> 100							
Nc1nnc2cc(Cl)ccc2n1	> 100	> 100	> 100	> 100	> 100			> 100	> 100	> 100000	> 100000		> 100000	
N#Cc1c(-c2ccccc2)cc(-c2ccc(Nc3nc(Nc4ccc(Cl)cc4)nc(Nc4ccc(Cl)cc4)n3)cc2)nc1N	20.4	> 100	2.78	10.2	2.8	3.1	24.2	4.67	29.7	2630	1220	1390	1420	5200
Cc1nc2ccc(Nc3nc(NCCN4CCOCC4)nc(Nc4ccc(F)cc4)n3)cc2n1Cc1ccccc1	71.6	15.2	2.98		2.94	9.48	9.33	5.56	3.07		1560	2920	1630	2130
CC1=C[C@H]2c3c(c(O)c(O)c4oc5ccccc5c(=O)c34)[C@H](c3cc(O)c(O)c4oc5ccccc5c(=O)c34)[C@H]2C(C)(C)C1	14.4	14.1	2.51	14	13.3	5.57	6.69	1.01	1.17	728	1860	1770	1170	1920
O=C(c1ccc2ncc(-c3nc(NC4CC4)ncc3F)n2c1)N1CCOCC1	> 100		8.53	> 100	7.6	7.41	5.29	2.68		2460	2470	1990	2600	1580
O=C(Nc1ccc(F)cc1)c1c(NC(=O)C(F)(F)F)sc2c1CCCCC2	87.1	21.4	2.1	> 100	13.9	7.41	6.85	3.43	1.56	1730	2110	1330	592	2080
COc1cc(/C=C2\CC3C4CC=C5C[C@@H](OC(C)=O)CC[C@]5(C)C4CC[C@]3(C)C2=O)ccc1OCCCn1ccnc1 (some centres not stated)	10.2	> 50	21.5	15.9	> 50	> 50		1.31	20.2	8930	16000	19000	9390	
O=C(Nc1ccc(Cl)cc1)c1ccc(NC2=C(Cl)C(=O)N(Cc3ccccc3)C2=O)cc1	38.6	76.6	99.3	20.4	37.9	30.7	34.2	14.4	23.2	8070	17400	8550	31100	15300
COc1ccc(-c2cc(/C=C3\C(=O)Nc4ccc(Cl)cc43)[nH]n2)cc1	13.6	28	23.6	12.1	19.5	5.67	19.3	3.89	10.4	3160	6600	2030	5170	6850
